Legend:
[1] = system: ZIKV human strain PAN2016; test: ZIKV PAN2016 infection of Ifnar1-/- mice: tissue viral titers, immunofluorescence; type: in vivo; settings: 20 mg/kg i.p., 5 dpi
Excerpt: FIG. 8A is a schematic diagram of experimental procedures. […] The treated mice were infected with ZIKV human strain R103451 (200 plaque forming unit (PFU)/mouse), followed by evaluation of survival rate (FIG. 8B) or weight changes (FIG. 8C) for 21 days. The data are expressed as mean±s.e.m. of mice in each group (n=6). In a separate experiment, ST087010 or gossypol-treated mice were infected with ZIKV human strain PAN2016 (200, PFU/mouse). Five days post-infection (dpi), viral titers were detected in tissues by plaque assay (FIG. 8D), and ZIKV or caspase-3 signals were measured in eye (FIG. 8E) and testis ([…]) tissues by immunofluorescence staining. The data are expressed as mean±s.e.m. of mice in each group (n=5), and significant differences among different groups are shown as *, **, and ***. The detection limit is 25 PFU/g. ZIKV and caspase-3 (in FIG. 8E-F) were stained with anti-ZIKV and anti-active caspase-3 antibodies, respectively. Nuclei were stained with DAPI (40,6-diamidino-2-phenylindole). Representative images of immunofluorescence staining are shown. Magnification, 63×, and scale bar, 10 μm.
ST087010 was evaluated for protection against ZIKV infection in ZIKV-susceptible Ifnar1^−/− mice. Briefly, 7-8-week-old male mice were used, and two separate experiments were performed. […] These mice were infected by i.p. injection with ZIKV (human strain R103451, 200 PFU/mouse), and observed daily for weight changes and survival until 21 days post-infection (dpi). […]
Plaque assay was used to detect viral titers in ZIKV-infected tissues. […] ZIKV titers in tissues were measured from ˜40 mg of samples, and thus the detection limit is about 25 PFU/g of tissues.
(§1) Immunofluorescence staining was carried out to detect ZIKV and caspase-3 signals in ZIKV-infected mouse tissues. […] The slides were analyzed using a confocal microscope (Zeiss LSM 880) and ZEN software, and fluorescent signals were quantified by ImageJ software. […]

[2] = system: ZIKV human strain R116265; test: ZIKV vertical transmission in pregnant Ifnar1-/- mice; type: in vivo; settings: 20 mg/kg i.p.
Method: Pregnant mice (at embryonic day (E) 12-14) were i.p. treated with ST087010 (20 mg/kg) or DMSO (control) 12 h before and 6, 24 and 48 after infection with ZIKV human strain R116265 (10^3 PFU/mouse). Viral titers were detected, by plaque assay, in sera (FIG. 9A), placenta (FIG. 9B), fetal brain (FIG. 9C), and amniotic fluid (FIG. 9D) at 5 days post infection (dpi). The data are expressed as mean±s.e.m. of mice in each group (n=5), and significant differences among different groups are shown. The detection limit is 25 PFU/ml (for sera and amniotic fluid), or 25 PFU/g (for placenta and fetal brain). Representative images of morphology of mouse uteri and fetuses at 5 dpi are shown. FIG. 9E depicts E17-19 uteri from pregnant mice challenged at E12-14. Fetal morphology (FIG. 9F) and fetal size (FIG. 9G) were detected. ZIKV or caspase-3 signals were measured in placentas by immunofluorescence staining (FIG. 9H). ZIKV and caspase-3 were stained with anti-ZIKV and anti-active caspase-3 antibodies, respectively. Nuclei were stained with DAPI. Representative images of immunofluorescence staining are shown. Magnification, 63×, and scale bar 10 μm.
ST087010 was evaluated for protection against ZIKV-caused fetal damage and death in pregnant Ifnar1^−/− mice. Briefly, groups of 5 pregnant mice (10- to 12-weeks old, E12-14) were injected intraperitoneally with ST087010 (20 mg/kg of body weight), or DMSO (control) 12 h before and 6, 24 and 48 h after i.p. infection with ZIKV (human strain R116265, 10^3 PFU). Five days post-infection, mice were sacrificed; viral titers were determined using plaque assay in sera, placenta, fetal brain and amniotic fluid, and uteri and fetuses were evaluated for morphological and size changes. Placenta was also assessed for apoptosis and viral replication by immunofluorescence staining.
as §1

in vitro = settings: African green monkey
Method: The cytotoxicity of the Z-medicaments in Vero E6 (ZIKV target cells) was evaluated using the Cell Counting Kit-8 (CCK8).
Briefly, compounds at 2-fold serial dilutions were added to cells (2.0×10^4/well) pre-seeded in 96-well plates. The cells were cultured at 37° C. for 3 days, and incubated with CCK8 solution, followed by measurement of absorbance at 450 nm (A450 value) using microplate reader.

Cc1cc2c(C(C)C)c(O)c(O)c(/C=N/n3c(=O)[nH][nH]c3=O)c2c(O)c1-c1c(C)cc2c(C(C)C)c(O)c(O)c(/C=N/n3c(=O)[nH][nH]c3=O)c2c1O [ST087010]
Viral titers in tissues (plaque assay) ([1]; ZIKV PAN2016 200 PFU/mouse, heart, testis, eye, kidney, brain): significantly reduced viral titers
ZIKV+ signals in eye and testis tissues ([1]; ZIKV PAN2016, immunofluorescence): undetectable
Caspase-3 staining in eye and testis tissues ([1]; ZIKV PAN2016, immunofluorescence, vs DMSO): undetectable or diminished staining
ZIKV+ or caspase-3 signals in placental tissues ([2]; ZIKV R116265, immunofluorescence, vs DMSO): undetectable or diminished
Condition of fetuses and uteri morphology ([2]; pregnant mice E12-14, ZIKV R116265 10^3 PFU, 5 dpi): all in good condition
Viral titers in sera, placenta, fetal brain and amniotic fluid ([2]; pregnant mice E12-14, ZIKV R116265 10^3 PFU, 5 dpi, vs DMSO): significantly reduced

Cc1cc2c(C(C)C)c(O)c(O)c(C=O)c2c(O)c1-c1c(C)cc2c(C(C)C)c(O)c(O)c(C=O)c2c1O [Gossypol, gossypol]
CC50 at 3 days (in vitro): 14.49 ± 0.07 µM

Source: US20220313651A1, “INHIBITORS OF ZIKA VIRUS INFECTION” (priority 2019, published 2022)
